Structures are written as SMILES.

For one assay, the target named is T1, human TRPV4 (Homo sapiens, UniProt Q9HBA0).
T1 construct: expressed in transfected cells; host or cells: BHK/AC9 cells transduced with BacMam virus
T1 sequence (Q9HBA0 whole entry): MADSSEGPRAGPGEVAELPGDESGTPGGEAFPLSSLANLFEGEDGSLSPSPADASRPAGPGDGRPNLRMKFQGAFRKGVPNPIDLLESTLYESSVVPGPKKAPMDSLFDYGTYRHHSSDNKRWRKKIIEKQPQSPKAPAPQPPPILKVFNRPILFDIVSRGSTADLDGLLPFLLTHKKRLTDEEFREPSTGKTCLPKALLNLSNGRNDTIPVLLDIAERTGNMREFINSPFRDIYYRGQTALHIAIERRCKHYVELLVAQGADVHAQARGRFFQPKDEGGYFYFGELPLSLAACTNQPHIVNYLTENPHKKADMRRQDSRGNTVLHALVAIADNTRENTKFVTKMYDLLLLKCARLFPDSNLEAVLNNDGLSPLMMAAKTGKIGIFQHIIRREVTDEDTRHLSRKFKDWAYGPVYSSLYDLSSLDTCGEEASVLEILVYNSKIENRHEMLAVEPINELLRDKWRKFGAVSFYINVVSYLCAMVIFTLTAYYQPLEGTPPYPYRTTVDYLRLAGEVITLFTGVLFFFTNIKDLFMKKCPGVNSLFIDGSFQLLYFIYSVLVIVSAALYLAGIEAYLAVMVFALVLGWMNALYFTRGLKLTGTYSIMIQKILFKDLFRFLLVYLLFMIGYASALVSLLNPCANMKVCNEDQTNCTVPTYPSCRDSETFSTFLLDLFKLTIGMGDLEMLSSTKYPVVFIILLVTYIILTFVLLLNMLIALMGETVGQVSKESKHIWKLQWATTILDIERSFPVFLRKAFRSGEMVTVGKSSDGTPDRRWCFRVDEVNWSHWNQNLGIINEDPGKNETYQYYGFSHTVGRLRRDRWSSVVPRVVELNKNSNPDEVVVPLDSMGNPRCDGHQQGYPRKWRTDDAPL
The assay can be described thus: FLIPR assay for hTRPV4 expressed in BHK cells: inhibition of Agonist Compound-induced calcium signal. Particulars: hTRPV4 FLIPR assay; average in at least one set of experimental runs; read-out: average IC50. The assay is classed as cell-based. In a few lines: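 Calcium influx through TRPV4 tracked by Fluo-4 fluorescence on FLIPR. Cells: BHK/AC9 transduced with BacMam-hTRPV4 at MOI 78, 24 h culture post-plating (15,000 cells/well). Dye loading: 2 μM Fluo-4 AM with 500 μM Brilliant Black quencher, 1-1.5 h, room temperature, dark.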
The term IC50 denotes the concentration at which inhibition is half-maximal. On to `C[C@H](O)[C@@]1(O)CN(S(=O)(=O)c2ccc(C(F)(F)F)cc2C#N)C[C@@H]1Oc1ccc(C#N)c(F)c1` [Example 194, 4-(((3S,4S)-1-((2-cyano-4-(trifluoromethyl)phenyl)sulfonyl)-4-hydroxy-4-((S)-1-hydroxyethyl)pyrrolidin-3-yl)oxy)-2-fluorobenzonitrile], for which the IC50 was determined as 40 nM.

Still in this assay, the particulars now being: hTRPV4 in BHK/AC9 cells, FLIPR calcium signal, agonist at EC80; reported as range class; read-out: IC50.
Turning to `N#Cc1ccc(O[C@H]2CN(S(=O)(=O)c3ccc(Br)cc3C(F)(F)F)C[C@@]2(O)CO)cc1F` [Example 121, 4-(((3S,4R)-1-((4-bromo-2-(trifluoromethyl)phenyl)sulfonyl)-4-hydroxy-4-(hydroxymethyl)pyrrolidin-3-yl)oxy)-2-fluorobenzonitrile], the half-inhibitory concentration (IC50) lay in the range of 10 to 100 nM.
On to `N#Cc1ccc(O[C@H]2CN(S(=O)(=O)c3ccc(Cl)cc3C#N)C[C@]23CNC(=O)O3)cc1F` [Example 255, 4-(((5R,9S)-7-((4-chloro-2-cyanophenyl)sulfonyl)-2-oxo-1-oxa-3,7-diazaspiro[4.4]nonan-9-yl)oxy)-2-fluorobenzonitrile], for which the IC50 fell in the range of 0.1 to 10 nM.
In the case of `N#Cc1ccc(O[C@H]2CN(S(=O)(=O)c3sc(Cl)nc3Cl)C[C@@]2(O)CO)cc1F` [Example 88, 4-(((3S,4R)-1-((2,4-dichlorothiazol-5-yl)sulfonyl)-4-hydroxy-4-(hydroxymethyl)pyrrolidin-3-yl)oxy)-2-fluorobenzonitrile], the half-maximal inhibitory concentration (IC50) was 10 to 100 nM.
On to `N#Cc1ccc(O[C@H]2CN(S(=O)(=O)c3c(Cl)cc(Cl)cc3Cl)C[C@@]2(O)CO)cn1` [Example 76, 5-(((3S,4R)-4-hydroxy-4-(hydroxymethyl)-1-((2,4,6-trichlorophenyl)sulfonyl)pyrrolidin-3yl)oxy)picolinonitrile], for which the 50% inhibitory concentration (IC50) lay in the range of 10 to 100 nM.
`COc1ccc(S(=O)(=O)N2C[C@H](Oc3ccc(C#N)c(F)c3)[C@](O)([C@H](C)O)C2)c(C#N)c1` [Example 199, 4-(((3S,4R)-1-((2-cyano-4-methoxyphenyl)sulfonyl)-4-hydroxy-4-((S)-1-hydroxyethyl)pyrrolidin-3-yl)oxy)-2-fluorobenzonitrile]: the concentration for half-maximal inhibition (IC50) lay within 10 to 100 nM.
As to `N#Cc1ccc(S(=O)(=O)N2C[C@H](Oc3ccc(Cl)cc3)[C@](O)(CO)C2)c(Cl)c1` [Example 106, 3-chloro-4-(((3R,4S)-4-(4-chlorophenoxy)-3-hydroxy-3-(hydroxymethyl)pyrrolidin-1-yl)sulfonyl)benzonitrile], the IC50 is 0.1 to 10 nM.
For the compound `N#Cc1cc(C(F)(F)F)ccc1S(=O)(=O)N1C[C@H](Oc2ccc(F)cc2)[C@](O)(CO)C1` [Example 47, 2-(((3R,4S)-4-(4-fluorophenoxy)-3-hydroxy-3-(hydroxymethyl)pyrrolidin-1-yl)sulfonyl)-5-(trifluoromethyl)benzonitrile], the half-maximal inhibitory concentration (IC50) is 10 to 100 nM.
Still for that read-out and setting: the same measure for `C[C@H](O)[C@@]1(O)CN(S(=O)(=O)c2ccc(C(F)(F)F)cc2C#N)C[C@@H]1Oc1ccc(C#N)c(F)c1` [Example 194, 4-(((3S,4S)-1-((2-cyano-4-(trifluoromethyl)phenyl)sulfonyl)-4-hydroxy-4-((S)-1-hydroxyethyl)pyrrolidin-3-yl)oxy)-2-fluorobenzonitrile]: 10 to 100 nM; for `CCCCOc1cc(C#N)ccc1O[C@H]1CN(S(=O)(=O)c2ccc(C(F)(F)F)cc2C#N)C[C@@]1(O)CO` [Example 169, 2-(((3R,4S)-4-(2-butoxy-4-cyanophenoxy)-3-hydroxy-3-(hydroxymethyl)pyrrolidin-1-yl)sulfonyl)-5-(trifluoromethyl)benzonitrile]: 0.1 to 10 nM.
For the compound `CN1CCO[C@]2(C1)CN(S(=O)(=O)c1ccc(Cl)cc1C#N)C[C@@H]2Oc1ccc(C#N)c(F)c1` [Example 252, 4-(((4S,5R)-2-((4-chloro-2-cyanophenyl)sulfonyl)-9-methyl-6-oxa-2,9-diazaspiro[4.5]decan-4-yl)oxy)-2-fluorobenzonitrile], the half-inhibitory concentration (IC50) was 0.1 to 10 nM.
With `N#Cc1ccc(O[C@H]2CN(S(=O)(=O)c3ccc(OC(F)(F)F)cc3Br)C[C@@]2(O)CO)cc1F` [Example 65, 4-(((3S,4R)-1-((2-bromo-4-(trifluoromethoxy)phenyl)sulfonyl)-4-hydroxy-4-(hydroxymethyl)pyrrolidin-3-yl)oxy)-2-fluorobenzonitrile], the 50% inhibitory concentration (IC50) lay within 0.1 to 10 nM.
On to `N#Cc1ccc(S(=O)(=O)N2C[C@H](Oc3ccc(C#N)c(F)c3)[C@](O)(CO)C2)c(Cl)c1` [Example 97, 4-(((3S,4R)-1-((2-chloro-4-cyanophenyl)sulfonyl)-4-hydroxy-4-(hydroxymethyl)pyrrolidin-3-yl)oxy)-2-fluorobenzonitrile], for which the IC50 was in the range of 0.1 to 10 nM.
`C[C@@H](N)[C@]1(O)CN(S(=O)(=O)c2ccc(Cl)cn2)C[C@@H]1Oc1ccc(C#N)c(F)c1` [Example 256, 4-(((3S,4R)-4-((R)-1-aminoethyl)-1-((5-chloropyridin-2-yl)sulfonyl)-4-hydroxypyrrolidin-3-yl)oxy)-2-fluorobenzonitrile, 2,2,2-trifluoroacetate]: the half-inhibitory concentration (IC50) is 10 to 100 nM.
The same measure, in the same setting: next, `CC#Cc1ccc(S(=O)(=O)N2C[C@H](Oc3ccc(C#N)c(F)c3)[C@](O)(CO)C2)c(C#N)c1` [Example 219, 4-(((3S,4R)-1-((2-cyano-4-(prop-1-yn-1-yl)phenyl)sulfonyl)-4-hydroxy-4-(hydroxymethyl)pyrrolidin-3-yl)oxy)-2-fluorobenzonitrile]: 0.1 to 10 nM.
On the same count and under the same terms, next, `N#Cc1ccc(O[C@H]2CN(S(=O)(=O)c3ccc(Cl)cc3Br)C[C@@]2(O)CO)cc1F` [Example 120, 4-(((3S,4R)-1-((2-bromo-4-chlorophenyl)sulfonyl)-4-hydroxy-4-(hydroxymethyl)pyrrolidin-3-yl)oxy)-2-fluorobenzonitrile]: 0.1 to 10 nM.
With `CNC[C@]1(O)CN(S(=O)(=O)c2ccc(C(F)(F)F)cc2C#N)C[C@@H]1Oc1ccc(C#N)c(F)c1` [Example 237, 4-(((3S,4S)-1-((2-cyano-4-(trifluoromethyl)phenyl)sulfonyl)-4-hydroxy-4-((methylamino)methyl)pyrrolidin-3-yl)oxy)-2-fluorobenzonitrile, 2,2,2-trifluoroacetate], the IC50 lay within 0.1 to 10 nM.
Turning to `C[C@H](O)[C@]1(O)CN(S(=O)(=O)c2ccc(F)cc2C#N)C[C@@H]1Oc1ccc(C#N)c(F)c1` [Example 201, 4-(((3S,4R)-1-((2-cyano-4-fluorophenyl)sulfonyl)-4-hydroxy-4-((S)-1-hydroxyethyl)pyrrolidin-3-yl)oxy)-2-fluorobenzonitrile], the IC50 fell in the range of 0.1 to 10 nM.
On the same count and under the same terms, the same measure for `N#Cc1ccc(O[C@H]2CN(S(=O)(=O)c3ccc(Cl)cc3C#N)C[C@]2(O)CNCCO)cc1F` [Example 236, 4-(((3S,4R)-1-((4-chloro-2-cyanophenyl)sulfonyl)-4-hydroxy-4-(((2-hydroxyethyl)amino)methyl)pyrrolidin-3-yl)oxy)-2-fluorobenzonitrile, 2,2,2-trifluoroacetate]: 0.1 to 10 nM.
As for `N#Cc1cc(C(F)(F)F)ccc1S(=O)(=O)N1C[C@H](Oc2ccc(C(F)(F)F)cc2)[C@@](O)(CO)C1` [Example 148, 2-(((3S,4S)-3-hydroxy-3-(hydroxymethyl)-4-(4-(trifluoromethyl)phenoxy)pyrrolidin-1-yl)sulfonyl)-5-(trifluoromethyl)benzonitrile], the concentration for half-maximal inhibition (IC50) was in the range of 10 to 100 nM.
Consider `COc1ccc(C#N)cc1O[C@H]1CN(S(=O)(=O)c2ccc(C(F)(F)F)cc2C#N)C[C@@]1(O)CO` [Example 54, 2-(((3R,4S)-4-(5-cyano-2-methoxyphenoxy)-3-hydroxy-3-(hydroxymethyl)pyrrolidin-1-yl)sulfonyl)-5-(trifluoromethyl)benzonitrile], for which the IC50 lay within 10 to 100 nM.
Consider `C[C@H](O)[C@]1(O)CN(S(=O)(=O)c2ccccc2C#N)C[C@@H]1Oc1ccc(C#N)c(F)c1` [Example 200, 4-(((3S,4R)-1-((2-cyanophenyl)sulfonyl)-4-hydroxy-4-((S)-1-hydroxyethyl)pyrrolidin-3-yl)oxy)-2-fluorobenzonitrile], for which the half-maximal inhibitory concentration (IC50) fell in the range of 10 to 100 nM.
As to `N#Cc1ccc(O[C@H]2CN(S(=O)(=O)c3ccc(C(F)(F)F)cc3C#N)C[C@@]2(O)CO)c(Cl)c1` [Example 14, 2-(((3R,4S)-4-(2-chloro-4-cyanophenoxy)-3-hydroxy-3-(hydroxymethyl)pyrrolidin-1-yl)sulfonyl)-5-(trifluoromethyl)benzonitrile], the IC50 was 0.1 to 10 nM.
In the case of `N#Cc1ccc(O[C@H]2CN(S(=O)(=O)c3ccc(OC(F)F)nc3)C[C@@]2(O)CO)cc1F` [Example 126, 4-(((3S,4R)-1-((6-(difluoromethoxy)pyridin-3-yl)sulfonyl)-4-hydroxy-4-(hydroxymethyl)pyrrolidin-3-yl)oxy)-2-fluorobenzonitrile], the IC50 lay in the range of 100 to 1000 nM.
Turning to `N#Cc1ccc(S(=O)(=O)N2C[C@H](Oc3cc(F)c(C#N)cc3OCC(F)(F)F)[C@](O)(CO)C2)cc1` [Example 178, 4-(((3S,4R)-1-((4-cyanophenyl)sulfonyl)-4-hydroxy-4-(hydroxymethyl)pyrrolidin-3-yl)oxy)-2-fluoro-5-(2,2,2-trifluoroethoxy) benzonitrile], the concentration for half-maximal inhibition (IC50) is 0.1 to 10 nM.
For `Cc1nc(C#N)ccc1S(=O)(=O)N1C[C@H](Oc2ccc(C#N)c(F)c2)[C@](O)(CO)C1` [Example 131, 5-(((3R,4S)-4-(4-cyano-3-fluorophenoxy)-3-hydroxy-3-(hydroxymethyl)pyrrolidin-1-yl)sulfonyl)-6-methylpicolinonitrile], the IC50 was 10 to 100 nM.
On to `N#Cc1ccc(O[C@H]2CN(S(=O)(=O)c3ccc(C(F)(F)F)cc3C#N)C[C@@]2(O)CO)c(C(F)(F)F)c1` [Example 17, 2-(((3R,4S)-4-(4-cyano-2-(trifluoromethyl)phenoxy)-3-hydroxy-3-(hydroxymethyl)pyrrolidin-1-yl)sulfonyl)-5-(trifluoromethyl)benzonitrile], for which the half-inhibitory concentration (IC50) lay within 0.1 to 10 nM.
For `CC(C)Oc1cc(C#N)ccc1O[C@H]1CN(S(=O)(=O)c2ccc(C(F)(F)F)cc2C#N)C[C@@]1(O)CO` [Example 44, 2-(((3R,4S)-4-(4-cyano-2-isopropoxy-phenoxy)-3-hydroxy-3-(hydroxymethyl)pyrrolidin-1-yl)sulfonyl)-5-(trifluoromethyl)benzonitrile], the concentration for half-maximal inhibition (IC50) fell in the range of 0.1 to 10 nM.

Source of the values: US11229623B2 (GlaxoSmithKline Intellectual Property (No.2) Limited, priority 2016, dated 2022).
